Literature values in patent publication US9353170B2, “Long-acting transient polymer conjugates of exendin” (SANOFI-AVENTIS DEUTSCHLAND GMBH, priority 2007, dated 2016).
Where no end group is shown, it is not given here. PEG 2 kDa = polyethylene glycol, 2 kDa

What was measured:
[1] = tested on: rat pancreas islets
[2] = tested on: normoglycaemic mice; conditions: subcutaneous injection
[3] = tested on: db/db mice; conditions: 10 μg/mouse subcutaneously
[4] = incubation in a human plasma model

Substance: N-terminal PEGylation of GLP-1 with only PEG2kDa: GLP-1 N-terminally PEGylated with PEG2kDa (Lee et al. 2005) ({PEG 2 kDa}-HAEGTFTSDVSSYLEGQAAKEFIAWLVKGR; not fully specified (C-terminus); ends and bridges not checked; UniProt P01275 98-127, looked up)
- activity on stimulating insulin release [1]: nearly completely abolished

Substance: PEG40 kDa-FMS-exendin-4: transiently PEGylated Exendin-4 based on a traceless FMS-linker (Shechter et al.)
- duration of maintained glucose lowering effect [2]: 24 h
- glucose lowering effect [2]: 30%

Substance: [2-Sulfo-9-fluorenylmethoxycarbonyl]3-exendin-4 [FMS3-exendin-4]
- sustained reduction in blood glucose [3]: 50%
- time of return of blood glucose to baseline value [3]: 45 h
- time at which cleavage is complete [4]: 40 h
